Consider 4 compounds from patent US4315023A, “1-Phenethylimidazole derivatives” (Westwood Pharmaceuticals, Inc., priority 1980, dated 1982).

Each structure is given as a SMILES string. Where a name gives a salt, the structure may show the parent alone. Some results are limits rather than exact numbers.

In assay [1] the test system is Staphylococcus aureus. In words: in vitro antibacterial activity (MIC), S. aureus. To be noted: Nutrient Broth. In kind it is cell-based.
Assay [2] relates to Candida albicans. In words: Candida albicans induced vaginal infection in mice. It counts as in vivo, female mice. As to conditions: Table I; percentage drug concentration giving 50% of the score of untreated control; intravaginal. Here is the method: A majority of the compounds of formula 3 were evaluated together with the prior art compound of formula 2 in a Candida albicans induced vaginal infection in mice and a Trichophyton quinekeanum induced skin infection in guinea pigs. Sabouraud broth was inoculated with Candida albicans and the inoculum incubated for two days at 28° C. on a rotary shaker. Groups of four to five female mice weighing between 18-21 grams were infected intravaginally with a 0.01 ml portion of the cell suspension containing 10^8 cells/ml on day 0. The mice were treated subcutaneously with 0.5 mg of estradiol benzoate three days before and four days after infection. The test compounds were suspended in 1% carboxymethyl cellulose and 0.02 ml of the suspension was instilled intravaginally from day 0 (four hours after infection) to day 4 (5 applications). On day 7, vaginal exudate was taken by a thin glass rod and streaked on a YGP agar plate containing 100 mcg/ml of chloramphenicol. The plate was incubated for two days at 28° C. […] In the following Table I the antifungal activity of the test compound is reported as the EC50 value, which is the percentage drug concentration giving 50% of the score of untreated control animals. The EC50 was calculated by the method of least squares (K. Brounlee: Statistical Theory and Methodology in Science and Engineering, pages 345-349, Wiley Press, New York, 1965). In Table II a more detailed comparison on the in vivo antifungal activities of compound 3a and the isomeric prior art compound 2 are shown together with the data for compound 3b.

The test system of assay [3] is Streptococcus pneumoniae. In words: in vitro antibacterial activity (MIC), S. pneumoniae. To be noted: 50% Nutrient Broth + 5% human serum. In kind it is cell-based.
The test system of assay [4] is Trichophyton quinekeanum. In words: Trichophyton quinekeanum induced skin infection in guinea pigs. In kind it is in vivo, male guinea pigs. To be noted: Table I; percentage drug concentration giving 50% of the score of untreated control; topical ointment. How it is done: In the guinea pig skin infection test, Trichophyton quinekeanum was cultured on a YGP agar slant at 28° C. for 10 days. Spores were collected from the mycelial mat and suspended in Sabouraud broth containing 2% of Tween 80. Groups of 3 male guinea pigs weighing between 400-500 g were used for each dose of test compound. The flanks of the animals were depilated and injured with sandpaper. The injured area was inoculated and rubbed with a glass rod on day 0 with 0.2 ml of the spore suspension containing 10^8 CFU/ml. The test compound was combined with a 1:1 mixture of polyethylene glycol 400 and 4000, and 0.3 ml of the ointment was applied to the infected area on day 1, 3 and 5. Lesions were examined on day 7 and scored as follows: 0, normal; 1, erythema; 2, erythema with whitish area; 3, erythema and numerous whitish areas; 4, erythema with confluent scaling and whitish pateches. A compound showing a mean score of 1.5 or less was considered active.
In the following Table I the antifungal activity of the test compound is reported as the EC50 value, which is the percentage drug concentration giving 50% of the score of untreated control animals. The EC50 was calculated by the method of least squares (K. Brounlee: Statistical Theory and Methodology in Science and Engineering, pages 345-349, Wiley Press, New York, 1965). In Table II a more detailed comparison on the in vivo antifungal activities of compound 3a and the isomeric prior art compound 2 are shown together with the data for compound 3b.
Treatment: 5 applications (day 0 to 4) against candida vaginal infection
and 3 applications (day 1, 3 and 5) against trichophyton skin infection

Assay [5] concerns S. faecalis. In words: in vitro antibacterial activity (MIC), S. faecalis. In kind it is cell-based, Streptococcus faecalis. To be noted: Enterococcus faecalis; Nutrient Broth.
For assay [6], the system named is Streptococcus pyogenes. In words: in vitro antibacterial activity (MIC), S. pyogenes. It counts as cell-based. To be noted: 50% Nutrient Broth + 5% human serum.

For orientation: MIC means the lowest concentration found to suppress growth. As for `Cc1ccc(CSCSC(Cn2ccnc2)c2ccc(Cl)cc2Cl)cc1.O=C(O)/C=C/C(=O)O` (centres unmarked) [Compound 3c, 1-[2-(2,4-Dichlorophenyl)-2-(4-methylbenzylthiomethylthio)ethyl]-1H-imidazole hydrogen fumarate], the MIC in assay [1] (Strain A) was 0.5 µg/mL; in assay [1] (Strain B) it was over 63 µg/mL; in assay [1] (Strain C) it was 0.5 µg/mL; in assay [3], 63 µg/mL; in assay [5], 2 µg/mL; in assay [6], 63 µg/mL. For the same compound, the “EC50, Candida Vaginal Infection” value in assay [2] is recorded as 0.0042%. For the same compound, the “EC50, Trichophyton Skin Infection” value in assay [4] is reported as 0.046%.

Take `Clc1ccc(CSCSC(Cn2ccnc2)c2ccc(Cl)cc2Cl)c(Cl)c1.O=C(O)/C=C/C(=O)O` (centres unmarked) [Compound 3d, 1-[2-(2,4-Dichlorobenzylthiomethylthio)-2-(2,4-dichlorophenyl)ethyl]-1H-imidazole hydrogen fumarate]: the MIC is 0.25 µg/mL in assay [1] (Strain A); over 63 µg/mL in assay [1] (Strain B); 0.25 µg/mL in assay [1] (Strain C); 63 µg/mL in assay [3]; over 63 µg/mL in assay [5]; 63 µg/mL in assay [6]. Moreover, the “EC50, Candida Vaginal Infection” value in assay [2] is recorded as 0.060%. For the same compound, the “EC50, Trichophyton Skin Infection” value in assay [4] amounted to 0.078%.

For the compound `Clc1ccc(C(Cn2ccnc2)SCSCc2c(Cl)cccc2Cl)c(Cl)c1` (centres unmarked) [Compound 3e, 1-[2-(2,6-Dichlorobenzylthiomethylthio)-2-(2,4-dichlorophenyl)ethyl]1-H-imidazole hydrochloride], the MIC in assay [1] (Strain A) was 0.25 µg/mL; in assay [1] (Strain B), over 63 µg/mL; in assay [1] (Strain C), 0.25 µg/mL; in assay [3], over 63 µg/mL; in assay [5], 0.5 µg/mL; in assay [6], over 63 µg/mL. Moreover, the “EC50, Candida Vaginal Infection” value in assay [2] is given as over 0.3%. For the same compound, the “EC50, Trichophyton Skin Infection” value in assay [4] was determined as 0.085%.

Turning to `Clc1ccc(C(Cn2ccnc2)SCSCc2ccsc2Cl)c(Cl)c1.O=C(O)C(=O)O` (centres unmarked) [Compound 3h, 1-[2-(2-Chloro-3-thienylmethylthiomethylthio)2-(2,4-dichlorophenyl)ethyl]-1H-imidazole hydrogen oxalate], the MIC in assay [1] (Strain A) came out at 0.5 µg/mL; in assay [1] (Strain B), 16 µg/mL; in assay [1] (Strain C), 0.5 µg/mL; in assay [3], 63 µg/mL; in assay [5], 2 µg/mL; in assay [6], 32 µg/mL. The “EC50, Candida Vaginal Infection” value in assay [2] is 0.050%. The “EC50, Trichophyton Skin Infection” value in assay [4] came to 0.047%.
